The values below come from patent US20250091994A1, “RAS/RAF BINDING INHIBITOR COMPOUND” (NATIONAL UNIVERSITY CORPORATION KOBE UNIVERSITY, priority 2021, published 2025).

The target in test [1] is GTPγS-bound human HRasG12V / human c-Raf-1 Ras binding domain (RBD) (Homo sapiens (Human), UniProt P01112, G12V). The test can be described thus: Ras-Raf binding inhibition ELISA. The method, boiled down:
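GST-c-Raf-1 RBD (aa 50-131) immobilized on glutathione plates, then GTPγS-loaded full-length HRasG12V added with compound (final 10% DMSO), 1 h at 30 °C, pH 7.4 Tris buffer. Bound Ras detected by anti-HRas antibody (C-20 or 259) and HRP secondary, TMB read at OD450; IC50 from inhibition.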

Test [2] concerns acute lymphoblastic leukemia cells CCRF-CEM (K-RasG12D). In words: Cell growth inhibition, suspension cells CCRF-CEM. Type of test: cell-based. The following applies: Homo sapiens, 72 hours; for inhibition at 3.2 µM: read-out: CCRF-CEM (KRasG12D) % inhibition at 3.2 μM (***). The method, then:
(§1) The cell growth inhibitory activity of the compound of the present invention on human culture cells having active-type mutation in Ras was evaluated by the below-mentioned method using suspension cancer cells {acute lymphoblastic leukemia cells CCRF-CEM (K-RasG12D), promyelocytic leukemia cells HL60 (N-RasQ61L), acute lymphoblastic leukemia cells MOLT4 (N-RasG12C), and small cell lung cancer cells SHP77 (K-RasG12V)} and adherent cancer cells {large bowel cancer cells SW480 (K-RasG12V) and large bowel cancer cell SW620 (K-RasG12V)}.
(§2) (Case of suspension cells) The cells suspended in a medium containing 0.5% (v/v) fetal bovine serum (FBS) and each compound solution (final DMSO concentration: 1%) were seeded on a 96-well plate (2 to 4×10^4 cells/well), and the resulting mixture was then cultured at 37° C. in the presence of 5% CO2 for 72 hours.
(§3) Thereafter, the number of viable cells was measured using Cell Counting Reagent (Nacalai Tesque) in accordance with the manufacturer's instructions. Inhibition by the test compound was determined according to the following equation: […]

The test system of test [3] is promyelocytic leukemia cells HL60 (N-RasQ61L). In words: Cell growth inhibition, suspension cells HL60. The format is cell-based. The following applies: Homo sapiens, HL-60, 72 hours; for inhibition at 3.2 µM: read-out: HL-60 (NRasQ61L) % inhibition at 3.2 μM (****). The method, boiled down:
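Suspension cells, 2 to 4×10^4 per well, cultured with compound in medium with 0.5% FBS (1% DMSO final) for 72 h at 37° C, 5% CO2. Viable cells counted with Cell Counting Reagent; inhibition calculated relative to controls.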

Test [4] relates to small cell lung cancer cells SHP77 (K-RasG12V). In words: Cell growth inhibition, suspension cells SHP77. Type of test: cell-based. To be noted: Homo sapiens, 3.2 μM (**), 72 hours, read-out: SHP77 (KRasG12V) % inhibition at 3.2 μM (**). The method, then: as §1, §2, §3
Test [5] has as its system large bowel cancer cell SW620 (K-RasG12V). The test can be described thus: Cell growth inhibition, adherent cells SW620. Type of test: cell-based. The following applies: Homo sapiens, SW-620; 3.2 μM (***), 72 hours; read-out: SW620 (KRasG12V) % inhibition at 3.2 μM (***). The protocol: as §1
(Case of adherent cells) The cells suspended in a medium containing 10% FBS (1 to 2×10^4 cells/well) were seeded on a 96-well plate, and were then cultured at 37° C. in the presence of […]. Thereafter, the medium was exchanged with a medium containing […], to which each compound solution (final DMSO concentration: […]) had been added, and the cells were then cultured at 37° C. in the presence of […] for 72 hours.
as §3

Setting [6] is: anti-HRas antibody C-20, read-out: ELISA IC50 (μM): 1st Ab_C-20.

Read-outs that look alike come from different tables or passages of the source.

For orientation: IC50 means the midpoint of a concentration-inhibition curve. The term inhibition denotes the change of the read-out against control, counted positive when it falls.

GTPγS-bound human HRasG12V / human c-Raf-1 Ras binding domain (RBD), sequence (P01112 whole entry G12V, the tested form may be a part): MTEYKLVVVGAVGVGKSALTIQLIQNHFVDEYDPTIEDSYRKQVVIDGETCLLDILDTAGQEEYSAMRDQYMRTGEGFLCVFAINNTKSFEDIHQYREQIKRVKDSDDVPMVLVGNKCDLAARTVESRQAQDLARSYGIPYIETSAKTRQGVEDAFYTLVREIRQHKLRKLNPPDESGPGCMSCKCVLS

With `CC(=O)N1/C(=C\c2ccc3cc(CNC4CCS(=O)(=O)CC4)ccc3n2)C(=O)c2ccccc21` [Example 133], the IC50 in test [1] (anti-HRas antibody 259 (*), read-out: ELISA IC50 (μM): 1st Ab_259 (*)) turned out to be 1.8 µM. Also, the inhibition at 10 µM in test [2] (10 μM (**), read-out: CCRF-CEM (KRasG12D) % inhibition at 10 μM (**)) is 80%; in test [3] (10 μM (***), read-out: HL-60 (NRasQ61L) % inhibition at 10 μM (***)), 99%.

On to `CC(=O)N1/C(=C\c2cc(-c3cccc(-c4ccccc4)c3)c3cc(C(=O)O)ccc3n2)C(=O)c2ccccc21` [Example 152, (Z)-4-([1,1′-biphenyl]-3-yl)-2-((1-acetyl-3-oxo-indolin-2-ylidene)-methyl)quinoline-6-carboxylic acid], for which at 1 µM the inhibition in test [1] was 53.5%. Besides, the IC50 in test [1] (setting [6]) turned out to be 0.9 µM. In addition, the inhibition at 3.2 µM in test [4] turned out to be 81.1%; in test [5], 97.2%.

As for `CC(=O)N1/C(=C\c2cc(-c3cccc4ccccc34)c3cc(C(=O)O)ccc3n2)C(=O)c2ccccc21` [Example 153, (Z)-2-((1-acetyl-3-oxoindolin-2-ylidene)methyl)-4-(naphthalen-1-yl)quinoline-6-carboxylic acid], in test [1], the inhibition at 1 µM is 63.1%. Also, the half-inhibitory concentration (IC50) in test [1] (setting [6]) stood at 1.1 µM. Further, the figures for the inhibition at 3.2 µM in test [4] and in test [5] were 65.7% and 96.1%, respectively.

`CC(=O)N1/C(=C\c2cc(-c3ccc(-c4ccccc4)cc3)c3cc(C(=O)O)ccc3n2)C(=O)c2ccccc21` [Example 156, (Z)-4-([1,1′-biphenyl]-4-yl)-2-((1-acetyl-3-oxoindolin-2-ylidene)methyl)-quinoline-6-carboxylic acid] returned an inhibition at 1 µM in test [1] of 52%. Also, the IC50 in test [1] (setting [6]) came to 0.9 µM. The results for the inhibition at 3.2 µM in test [4] and in test [5] were 35.1% and 99%, respectively.

Turning to `CC(=O)N1/C(=C\c2cc(-c3ccc4ccccc4c3)c3cc(C(=O)O)ccc3n2)C(=O)c2ccccc21` [Example 157, (Z)-2-((1-acetyl-3-oxoindolin-2-ylidene)methyl)-4-(naphthalen-2-yl)quinoline-6-carboxylic acid], the inhibition at 1 µM in test [1] was determined as 61.4%. In addition, in test [1] (setting [6]), the IC50 is 0.6 µM. Besides, the figures for the inhibition at 3.2 µM in test [4] and in test [5] were 49.2% and 97.5%, respectively.

With `CC(=O)N1/C(=C\c2cc(-c3cccc(-c4ccccc4)c3)c3cc(C(=O)N4CCN(C5COC5)CC4)ccc3n2)C(=O)c2ccccc21` [Example 158, (Z)-2-((4-([1,1′-biphenyl]-3-yl)-6-(4-(oxetan-3-yl)-piperazine-1-carbonyl)quinolin-2-yl)methylene)-1-acetylindolin-3-one], the inhibition at 1 µM in test [1] was found to be 59.2%. For the same compound, the IC50 in test [1] (setting [6]) worked out at 0.8 µM. For the same compound, the inhibition at 3.2 µM came out at 72.4% in test [4] and 58.5% in test [5].

`CC(=O)N1/C(=C\c2cc(-c3cccc4ccccc34)c3cc(C(=O)N4CCN(C5COC5)CC4)ccc3n2)C(=O)c2ccccc21` [Example 159, (Z)-1-acetyl-2-((4-(naphthalen-1-yl)-6-(4-(oxetan-3-yl)piperazine-1-carbonyl)quinolin-2-yl)methylene)-indolin-3-one] showed an inhibition at 1 µM in test [1] of 72.7%. Besides, in test [1] (setting [6]), the IC50 is 0.3 µM. The inhibition at 3.2 µM was 52.6% in test [4] and 96.6% in test [5].

With `CC(=O)N1/C(=C\c2cc(-c3ccc4ccccc4c3)c3cc(C(=O)N4CCN(C5COC5)CC4)ccc3n2)C(=O)c2ccccc21` [Example 163, (Z)-1-acetyl-2-((4-(naphthalen-2-yl)-6-(4-(oxetan-3-yl)piperazine-1-carbonyl)quinolin-2-yl)methylene)-indolin-3-one], testing at 1 µM in test [1] gave an inhibition of 63.8%. In addition, the IC50 in test [1] (setting [6]) amounted to 0.7 µM. In addition, the inhibition at 3.2 µM was 72.3% in test [4] and 34.7% in test [5].

As to `CC(=O)N1/C(=C\c2cc(-c3cccc(-c4ccccc4)c3)c3cc(CNC4CCOCC4)ccc3n2)C(=O)c2ccccc21` [Example 164, (Z)-2-((4-([1,1′-biphenyl]-3-yl)-6-(((tetrahydro-2H-pyran-4-yl)amino)-methyl)quinolin-2-yl)methylene)-1-acetylindolin-3-one], in test [1], at 1 µM the inhibition was 48.7%. In addition, the IC50 in test [1] (setting [6]) was 1.2 µM. Besides, the inhibition at 3.2 µM in test [4] was 43.5%.

In turn, `CC(=O)N1/C(=C\c2cc(-c3cccc4cccnc34)c3cc(CNC4CCOCC4)ccc3n2)C(=O)c2ccccc21` [Example 167, (Z)-1-acetyl-2-((6-(((tetrahydro-2H-pyran-4-yl)-amino)methyl)-[4,8′-biquinolin]-2-yl)methylene)-indolin-3-one] showed an inhibition at 1 µM in test [1] of 62.2%. In test [1] (setting [6]), the IC50 came out at 0.8 µM. The inhibition at 3.2 µM was found to be 65.8% in test [4] and 64.4% in test [5].

`CC(=O)N1/C(=C\c2cc(-c3ccc(-c4ccccc4)cc3)c3cc(CNC4CCOCC4)ccc3n2)C(=O)c2ccccc21` [Example 168, (Z)-2-((4-([1,1′-biphenyl]-4-yl)-6-(((tetrahydro-2H-pyran-4-yl)amino)-methyl)quinolin-2-yl)methylene)-1-acetylindolin-3-one]: the inhibition at 1 µM in test [1] was found to be 48.4%. The IC50 in test [1] (setting [6]) was determined as 1.3 µM. For the same compound, in test [4], the inhibition at 3.2 µM amounted to 53.1%.

In test [1], `CC(=O)N1/C(=C\c2cc(-c3ccc4ccccc4c3)c3cc(CNC4CCOCC4)ccc3n2)C(=O)c2ccccc21` [Example 169, (Z)-1-acetyl-2-((4-(naphthalen-2-yl)-6-(((tetrahydro-2H-pyran-4-yl)-amino)methyl)-quinolin-2-yl)-methylene)indolin-3-one] yielded an inhibition at 1 µM of 52.4%. The half-maximal inhibitory concentration (IC50) in test [1] (setting [6]) amounted to 0.9 µM. In addition, the inhibition at 3.2 µM was 51.5% in test [4] and 35.1% in test [5].

With `CC(=O)N1/C(=C\c2cc(-c3nccn3C)c3cc(C(=O)N4CCOCC4)ccc3n2)C(=O)c2ccccc21` [Example 180, (Z)-1-acetyl-2-((4-(1-methyl-1H-imidazol-2-yl)-6-(morpholine-4-carbonyl)quinolin-2-yl)methylene)-indolin-3-one], in test [1], the inhibition at 1 µM came to 43.7%. The IC50 in test [1] (setting [6]) was found to be 1.5 µM. In addition, the inhibition at 3.2 µM in test [4] came to 69.2%.

As to `CC(=O)N1/C(=C\c2cc(-c3cnccn3)c3cc(C(=O)N4CCOCC4)ccc3n2)C(=O)c2ccccc21` [Example 194, (Z)-1-acetyl-2-((6-(morpholine-4-carbonyl)-4-(pyrazin-2-yl)-quinolin-2-yl)-methylene)indolin-3-one], 1 µM produced 55.4% inhibition in test [1]. Also, the IC50 in test [1] (setting [6]) worked out at 0.9 µM. Besides, in test [4], the inhibition at 3.2 µM stood at 58.3%.

As to `CC(=O)N1/C(=C\c2nc3ccc(C(=O)N4CCOCC4)cc3cc2-c2cnn(C)c2)C(=O)c2ccccc21` [Example 198, (Z)-1-acetyl-2-((3-(1-methyl-1H-pyrazol-4-yl)-6-(morpholine-4-carbonyl)quinolin-2-yl)methylene)-indolin-3-one], the inhibition at 3.2 µM in test [2] came out at 68.7%; in test [3], 75.1%; in test [5], 30.4%.

Take `CC(=O)N1/C(=C\c2nc3ccc(C(=O)O)cc3cc2-c2cccc3ccccc23)C(=O)c2ccccc21` [Example 202, (Z)-2-((1-acetyl-3-oxoindolin-2-ylidene)methyl)-3-(naphthalen-1-yl)-quinoline-6-carboxylic acid]: the inhibition at 3.2 µM worked out at 63.6% in test [4] and 96.6% in test [5].

With `CC(=O)N1/C(=C\c2nc3ccc(-c4nnn[nH]4)cc3cc2-c2cccc3ccccc23)C(=O)c2ccccc21` [Example 214, (Z)-1-acetyl-2-((3-(naphthalen-1-yl)-6-(1H-tetrazol-5-yl)quinolin-2-yl)methylene)-indolin-3-one], the IC50 in test [1] (setting [6]) came out at 28.9 µM. Also, the inhibition at 3.2 µM turned out to be 96% in test [2], 36.7% in test [3] and 92.2% in test [5].
